Assay results from the NIST ThermoML archive (doi:10.1016/j.jct.2008.02.003).
± gives the expanded uncertainty stated by the source.

Key:
[1] = Crystal; DTA
[2] = Molar enthalpy of transition or fusion; conditions: Crystal; DSC
[3] = molar enthalpy of vaporization or sublimation; conditions: 298.15 K, Calvet microcalorimetry

| SMILES | Normal melting temperature [1] [°C] | Molar enthalpy of transition or fusion [2] [kJ/mol] | molar enthalpy ([3]; Crystal) [kJ/mol] | molar enthalpy ([3]; Liquid) [kJ/mol] |
| --- | --- | --- | --- | --- |
| COc1cccc(Cl)c1Cl [1,2-dichloro-3-methoxybenzene] | 30.99 ± 0.39 | 22 ± 0.5 | 83.6 ± 3 | – |
| COc1ccc(Cl)cc1Cl [2,4-dichloro-1-methoxybenzene] | – | – | – | 62.8 ± 1.4 |
| COc1c(Cl)cccc1Cl [2,6-dichloroanisole] | – | – | – | 56.1 ± 1.4 |
| COc1cc(Cl)cc(Cl)c1 [3,5-dichloroanisole] | 37.37 ± 0.39 | 23.7 ± 0.62 | 79 ± 3 | – |
